The text below walks through data of ChEMBL document CHEMBL1133730 (J Med Chem, 2000).

In experiment [1] the target is Adenosine receptor A2a (Rattus norvegicus, UniProt P30543).
Experiment [2] has as its target T1, Adenosine receptor A1 (Homo sapiens) (UniProt P30542).
T1 sequence (whole entry): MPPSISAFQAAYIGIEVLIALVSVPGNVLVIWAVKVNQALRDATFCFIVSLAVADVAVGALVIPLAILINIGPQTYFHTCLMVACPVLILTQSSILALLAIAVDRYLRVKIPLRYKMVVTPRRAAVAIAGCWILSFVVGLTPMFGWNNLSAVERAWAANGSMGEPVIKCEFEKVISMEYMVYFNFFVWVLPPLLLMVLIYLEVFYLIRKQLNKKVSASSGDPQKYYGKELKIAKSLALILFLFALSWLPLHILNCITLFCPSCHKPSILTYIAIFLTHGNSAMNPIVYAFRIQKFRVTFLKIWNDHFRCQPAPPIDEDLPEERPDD
Briefly: Maximum stimulation against human adenosine A1 receptor.

Experiment [3] has as its target T2, Adenosine receptor A3 (Homo sapiens) (UniProt P0DMS8).
T2 sequence (whole entry): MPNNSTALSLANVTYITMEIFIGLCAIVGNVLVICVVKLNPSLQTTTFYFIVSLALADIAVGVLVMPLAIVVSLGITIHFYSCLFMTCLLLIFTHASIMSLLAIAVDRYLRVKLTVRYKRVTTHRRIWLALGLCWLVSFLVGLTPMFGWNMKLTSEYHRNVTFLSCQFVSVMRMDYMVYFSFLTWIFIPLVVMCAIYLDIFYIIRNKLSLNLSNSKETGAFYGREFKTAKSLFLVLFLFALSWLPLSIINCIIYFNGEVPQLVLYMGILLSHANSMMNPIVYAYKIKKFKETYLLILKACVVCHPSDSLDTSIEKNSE
The experiment is described as follows: Maximum stimulation against human adenosine A3 receptor.

Experiment [4] concerns the target Adenosine receptors; A1 & A3 (Rattus norvegicus) (UniProt P25099+P28647). Briefly: Relative binding affinity for Adenosine A1 and A3 receptors. In kind it is protein assay.
In experiment [5] the target is T3, Adenosine receptor A1 (Rattus norvegicus) (UniProt P25099).
T3 sequence (whole entry): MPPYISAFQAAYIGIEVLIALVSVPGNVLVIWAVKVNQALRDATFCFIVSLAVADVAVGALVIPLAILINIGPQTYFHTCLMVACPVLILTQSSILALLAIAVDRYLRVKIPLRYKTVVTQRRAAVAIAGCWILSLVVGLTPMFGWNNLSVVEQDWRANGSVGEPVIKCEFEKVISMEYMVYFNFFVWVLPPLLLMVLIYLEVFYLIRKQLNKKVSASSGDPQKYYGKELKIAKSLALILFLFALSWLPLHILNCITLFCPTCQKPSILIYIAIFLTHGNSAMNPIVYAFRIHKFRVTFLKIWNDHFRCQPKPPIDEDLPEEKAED
The experiment is described as follows: Maximum stimulation against adenosine A1 receptor of rat cerebral cortical membrane.

Experiment [6] deals with T4, Adenosine receptor A3 (Homo sapiens, UniProt P0DMS8).
T4 sequence (P0DMS8 whole entry): T2 sequence (whole entry)
The experiment is described as follows: Stimulation of [35S]GTP-gamma-S, against human adenosine A3 receptor. In kind it is functional. (Binding of GTPγS marks nucleotide exchange on a G protein.)

Experiment [7] has as its target T4, Adenosine receptor A3. Briefly: Displacement of [125I]- AB-MECA from human adenosine A3 receptor expressed in HEK cells. Format: cell-based, HEK293. On the technique in general: Displacement assays read how much labelled ligand stays bound in the presence of the test substance.
The next experiment deals with T5, Adenosine receptor A2b (Homo sapiens, UniProt P29275).
T5 sequence (P29275 whole entry): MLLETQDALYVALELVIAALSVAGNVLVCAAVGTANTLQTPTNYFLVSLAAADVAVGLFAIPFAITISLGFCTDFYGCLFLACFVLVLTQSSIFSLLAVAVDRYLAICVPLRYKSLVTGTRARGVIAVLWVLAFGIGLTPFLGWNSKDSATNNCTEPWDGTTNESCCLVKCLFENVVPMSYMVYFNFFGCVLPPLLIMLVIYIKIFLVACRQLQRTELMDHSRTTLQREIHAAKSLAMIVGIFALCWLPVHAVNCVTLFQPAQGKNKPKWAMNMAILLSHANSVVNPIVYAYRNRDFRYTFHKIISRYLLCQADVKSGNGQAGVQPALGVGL
Briefly: biochemical.

In experiment [8] the target is T6, Adenosine receptor A1 (Homo sapiens, UniProt P30542).
T6 sequence (P30542 whole entry): T1 sequence (whole entry)
Briefly: Stimulation of [35S]GTP-gamma-S, binding to human adenosine A1 receptor. Format: functional.

In experiment [9] the target is T7, Adenosine receptor A1 (Rattus norvegicus, UniProt P25099).
T7 sequence (P25099 whole entry): T3 sequence (whole entry)

For experiment [10], the target named is T7, Adenosine receptor A1. This is another data set of the same source.
Experiment [11] addresses Adenosine receptor A2a (Rattus norvegicus) (UniProt P30543). The experiment is described as follows: Displacement of [3H]-CGS- 21680 from adenosine A2A receptor of rat striatal membranes at 100 uM. In kind it is cell membranes. The settings on record: Membrane.
In experiment [12] the target is T3, Adenosine receptor A1 (Rattus norvegicus). Briefly: Displacement of [3H]R-PIA from adenosine A1 receptor in rat brain membranes at 100 uM. In kind it is cell membranes.
Experiment [13] deals with T8, Adenosine receptor A2b (Homo sapiens) (UniProt P29275).
T8 sequence (whole entry): T5 sequence (P29275 whole entry)
The experiment is described as follows: Displacement of [3H]- ZM-241385 from human adenosine A2B receptor expressed in HEK cell at 50 uM. Particulars: HEK293. In kind it is cell-based.

Experiment [14] addresses Adenosine receptor A2a (Homo sapiens, UniProt P29274). The experiment is described as follows: Displacement of [3H]ZM241385 from human adenosine A2A receptor expressed in HEK cells.
For experiment [15], the target named is T4, Adenosine receptor A3. Briefly: Displacement of [125I]- AB-MECA from human adenosine A3 receptor expressed in HEK cell in the absence of ADA. In kind it is cell-based, HEK293.
In experiment [16] the target is T9, Adenosine receptor A3 (Rattus norvegicus, UniProt P28647).
T9 sequence (P28647 whole entry): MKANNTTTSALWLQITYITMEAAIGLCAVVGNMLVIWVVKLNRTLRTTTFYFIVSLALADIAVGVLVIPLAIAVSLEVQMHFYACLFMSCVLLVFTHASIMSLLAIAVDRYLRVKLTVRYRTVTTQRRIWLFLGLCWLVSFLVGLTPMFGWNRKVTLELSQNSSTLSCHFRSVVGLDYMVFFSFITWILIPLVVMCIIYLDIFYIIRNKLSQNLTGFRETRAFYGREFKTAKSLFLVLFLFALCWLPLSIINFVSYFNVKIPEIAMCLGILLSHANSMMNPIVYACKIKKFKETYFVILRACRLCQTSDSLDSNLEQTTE
Briefly: Displacement of [125I]- AB-MECA from rat adenosine A3 receptor expressed in CHO cells. Format: cell-based.

The target in experiment [17] is T8, Adenosine receptor A2b (Homo sapiens). Briefly: Displacement of [3H]ZM241,385 binding to human adenosine A2B receptor expressed in HEK cells at 100 uM. Format: cell-based. Particulars: HEK293.

Sequence of Adenosine receptor A2a (Rattus norvegicus, UniProt P30543) (P30543 whole entry): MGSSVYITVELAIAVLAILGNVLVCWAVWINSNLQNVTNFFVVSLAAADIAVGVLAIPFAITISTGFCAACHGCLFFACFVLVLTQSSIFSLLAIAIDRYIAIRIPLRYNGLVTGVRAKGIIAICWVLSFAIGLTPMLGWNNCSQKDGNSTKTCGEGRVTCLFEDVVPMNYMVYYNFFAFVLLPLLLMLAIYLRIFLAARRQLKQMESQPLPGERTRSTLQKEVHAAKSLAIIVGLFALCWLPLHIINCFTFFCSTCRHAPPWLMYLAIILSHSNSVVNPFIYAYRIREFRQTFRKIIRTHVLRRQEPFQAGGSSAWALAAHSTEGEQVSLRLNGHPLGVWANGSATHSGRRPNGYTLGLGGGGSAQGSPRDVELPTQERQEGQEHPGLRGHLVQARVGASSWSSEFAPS
Sequence of Adenosine receptor A2a (Homo sapiens, UniProt P29274) (P29274 whole entry): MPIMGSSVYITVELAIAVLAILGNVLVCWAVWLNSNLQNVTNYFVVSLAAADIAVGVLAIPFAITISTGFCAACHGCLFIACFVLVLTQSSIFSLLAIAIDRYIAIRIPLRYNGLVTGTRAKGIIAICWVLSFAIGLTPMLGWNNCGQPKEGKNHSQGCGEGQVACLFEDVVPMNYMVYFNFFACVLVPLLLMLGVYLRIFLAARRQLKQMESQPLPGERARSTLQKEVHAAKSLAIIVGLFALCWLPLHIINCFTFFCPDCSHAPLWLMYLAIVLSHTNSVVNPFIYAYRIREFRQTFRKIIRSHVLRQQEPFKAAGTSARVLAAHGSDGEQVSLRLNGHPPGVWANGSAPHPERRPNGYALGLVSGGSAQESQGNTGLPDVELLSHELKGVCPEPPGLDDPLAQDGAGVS
Sequence of Adenosine receptor A2a (Rattus norvegicus) (P30543 whole entry): as the sequence (P30543 whole entry) above

As for `OC[C@H]1O[C@@H](n2cnc3c(NC4CCCC4)ncnc32)[C@H](O)[C@@H]1O` [N6-CYCLOPENTYLADENOSINE], on Adenosine receptor A2a [1], the Ki stood at 857 nM. For the same compound, the Max in experiment [2] and in experiment [3] was 100% each time.
As for `OC[C@@]12C[C@@H]1[C@@H](n1cnc3c(NC4CCCC4)ncnc31)[C@H](O)[C@@H]2O`, the Ratio in experiment [4] was 0.03. Besides, the inhibition constant Ki on Adenosine receptor A2a [1] is 6800 nM; on Adenosine receptor A3 [7], 170 nM; at Adenosine receptor A2b it was 139000 nM; on Adenosine receptor A1 [9], 5.06 nM. For the same compound, the values for the Max in [5], in experiment [2] and in [3] were 75%, 102% and 14%, respectively. The figures for the EC50 at Adenosine receptor A3 [6], on Adenosine receptor A1 [8] and at Adenosine receptor A1 [10] were more than 10000 nM, 21.5 nM and 100 nM, respectively.
For the compound `OC[C@H]1C[C@@H](n2cnc3c(NCc4cccc(I)c4)ncnc32)[C@H](O)[C@@H]1O`, the Ratio in experiment [4] is 13. In experiment [11], this compound came in with a Displacement of less than 10%. The concentration for a half-maximal effect (EC50) at Adenosine receptor A3 [6] and on Adenosine receptor A1 [8] was more than 10000 nM each time. Besides, the Ki at Adenosine receptor A3 [7] stood at 1960 nM; on Adenosine receptor A1 [9], 25900 nM. In addition, the Max worked out at 5% in experiment [2] and 14% in [3].
`OC[C@@]12C[C@@H]1[C@@H](n1cnc3c(NCc4cccc(I)c4)nc(Cl)nc31)[C@H](O)[C@@H]2O`: the Ratio in [4] turned out to be 63. Besides, the Ki on Adenosine receptor A2a [1] is 732 nM; on Adenosine receptor A2b it was 41000 nM; at Adenosine receptor A1 [9], 141 nM. The values for the Max in experiment [5], in [2] and in experiment [3] were 48%, 91% and 22%, respectively. Also, the 50% effective concentration (EC50) at Adenosine receptor A3 [6] is 0.67 nM; at Adenosine receptor A1 [8], 142 nM; on Adenosine receptor A1 [10] it was 684 nM.
For the compound `Nc1ncnc2c1ncn2[C@@]12C[C@H]1[C@H](CO)[C@@H](O)[C@H]2O`, the Displacement was determined as 15% in experiment [12] and 20% in experiment [13]. In experiment [4], the Ratio is more than 1. The Ki at Adenosine receptor A2a [14] was more than 100000 nM; on Adenosine receptor A3 [15], 62500 nM.
On to `OC[C@H]1O[C@@H](n2cnc3c(NCc4cccc(I)c4)ncnc32)[C@H](O)[C@@H]1O`, for which the Max came out at 95% in [5], 91% in experiment [2] and 100% in experiment [3].
For the compound `OC[C@@]12C[C@@H]1[C@@H](n1cnc3c(NCc4cccc(I)c4)ncnc31)[C@H](O)[C@@H]2O`, the results for the inhibition constant Ki on Adenosine receptor A2a [1], on Adenosine receptor A3 [7] and at Adenosine receptor A2b were 601 nM, 4.13 nM and 12100 nM, respectively. Moreover, the EC50 on Adenosine receptor A3 [6] worked out at 0.7 nM; at Adenosine receptor A1 [8], 218 nM. Moreover, the Max in [2] worked out at 86%; in [3], 45.3%.
Consider `Nc1ncnc2c1ncn2[C@@H]1O[C@H](CO)[C@@H](O)[C@H]1O` [ADENOSINE], for which the Ki at Adenosine receptor A3 [16] is 1000 nM.
Consider `Nc1ncnc2c1ncn2[C@H]1[C@H](O)[C@H](O)[C@]2(CO)C[C@H]12`, for which the Ratio in experiment [4] amounted to 4.2. In experiment [13], this compound displayed a Displacement of 35%. Also, the inhibition constant (Ki) at Adenosine receptor A2a [14] amounted to 22500 nM; on Adenosine receptor A1 [9], 1680 nM; at Adenosine receptor A3 [15], 404 nM.
In the case of `CCNC(=O)[C@H]1O[C@@H](n2cnc3c(N)ncnc32)[C@H](O)[C@@H]1O`, the Max in [3] worked out at 100%.
Turning to `OC[C@@]12C[C@@H]1[C@@H](n1cnc3c(NC4CCCC4)nc(Cl)nc31)[C@H](O)[C@@H]2O`, in [4], the Ratio is 0.019. Also, the Ki is 3390 nM at Adenosine receptor A2a [1], 466 nM at Adenosine receptor A3 [7] and 8.76 nM on Adenosine receptor A1 [9]. The values for the Max in experiment [5], in experiment [2] and in [3] were 96%, 97% and 15%, respectively. Besides, the EC50 on Adenosine receptor A3 [6] was more than 10000 nM; at Adenosine receptor A1 [8] it was 31.2 nM; at Adenosine receptor A1 [10], 145 nM. The Displacement in [17] amounted to 27%.

As a reminder, the Ki is a measure of affinity in units of concentration, obtained from inhibition or displacement. The low end stands for higher affinity, the high end for lower affinity. As a reminder, the EC50 is the concentration needed to bring the measured effect to its halfway point. A high value points to weaker potency.
